# Target: human PD-L1 (Homo sapiens (Human), UniProt Q9NZQ7)
# Experiment: Enzyme-Linked Immunosorbent Assay (ELISA), PD-1/PD-L1 binding
# How it was run: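 Competitive ELISA: human PD-1 […] (0.31 μg/mL) and serially diluted compounds (1:5) incubated 1 h at 37° C on wells coated with […] human PD-L1. Signal via streptavidin-HRP/TMB, stopped with 2 N H2SO4, measured as A450.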
# [1] = human PD-1/PD-L1 ELISA, plates coated with human PD-L1
# [2] = PD-1/PD-L1 ELISA, human PD-L1 coated plates, Table 1
# Chain of human PD-L1 (Q9NZQ7 19-239): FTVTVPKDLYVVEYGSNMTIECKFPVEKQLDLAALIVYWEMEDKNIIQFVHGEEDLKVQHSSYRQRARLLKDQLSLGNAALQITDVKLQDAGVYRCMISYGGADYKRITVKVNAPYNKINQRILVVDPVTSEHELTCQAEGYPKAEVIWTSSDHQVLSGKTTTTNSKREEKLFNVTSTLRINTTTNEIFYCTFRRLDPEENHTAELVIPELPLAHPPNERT
Structure (SMILES),IC50 [1] [nM],IC50 [2] [nM]
COc1cc(-c2cccc(-c3cccc(Nc4nccc5nccnc45)c3C)c2C)cc(F)c1CN[C@H]1CNC(=O)C1 [Example 1.153],< 10,
COc1cc(-c2cccc(-c3cccc(NC(=O)c4cncn(C)c4=O)c3C)c2C)cc(F)c1CN[C@H]1CNC(=O)C1 [Example 1.154],< 10,
COc1cc(-c2cccc(-c3cccc(NC(=O)c4cn(C)c(=O)n(C)c4=O)c3C)c2C)cc(F)c1CNC[C@H]1CCC(=O)N1 [Example 1.155],< 10,
COc1cc(-c2cccc(-c3cccc(NC(=O)c4cccn(C)c4=O)c3C)c2C)cc(F)c1CNC[C@@H]1CCC(=O)N1C [Example 1.156],< 10,
COc1cc(-c2cccc(-c3cccc(NC(=O)c4cccn(C)c4=O)c3C)c2C)cc(F)c1CNC[C@@H]1CCC(=O)N1 [Example 1.157],< 10,
COc1cc(-c2cccc(-c3cccc(NC(=O)c4c[nH]c(=O)n(C)c4=O)c3C)c2C)cc(F)c1CNC[C@H]1CCC(=O)N1 [Example 1.158],< 10,
COc1cc(-c2cccc(-c3cccc(Nc4nccc5nccnc45)c3C)c2C)cc(F)c1CNC[C@H]1CCC(=O)N1 [Example 1.159],< 10,
COc1cc(-c2cccc(-c3cccc(NC(=O)c4cncn(C)c4=O)c3C)c2C)cc(F)c1CN[C@@H]1CCC[C@H]1O [Example 1.160],< 10,
COc1cc(-c2cccc(-c3cccc(NC(=O)c4cncn(C)c4=O)c3C)c2C)cc(F)c1CN[C@H]1CCC[C@H]1O [Example 1.161],< 10,
COc1cc(-c2cccc(-c3cccc(NC(=O)c4cn(C)c(=O)n(C)c4=O)c3C)c2C)cc(F)c1CNC1CCOC1 (centres unmarked) [Example 1.162],< 10,
COc1cc(-c2cccc(-c3cccc(NC(=O)c4cccn(C)c4=O)c3C)c2C)cc(F)c1CN(C)CCO [Example 1.164],< 10,
COc1cc(-c2cccc(-c3cccc(NC(=O)c4cccn(C)c4=O)c3C)c2C)cc(F)c1CN[C@@H]1CCC[C@@H]1O [Example 1.165],< 10,
COc1cc(-c2cccc(-c3cccc(NC(=O)c4cncn(C)c4=O)c3C)c2C)cc(F)c1CN(C)CC(C)(C)O [Example 1.166],10 to 1000,
COc1cc(-c2cccc(-c3cccc(NC(=O)c4cccn(C)c4=O)c3C)c2C)cc(F)c1CN(C)C[C@@H]1CCC(=O)N1 [Example 1.167],< 10,
COc1cc(-c2cccc(-c3cccc(NC(=O)c4cccn(C)c4=O)c3C)c2C)cc(F)c1CNC1CCOC1 (centres unmarked) [Example 1.168],< 10,
COc1cc(-c2cccc(-c3cccc(NC(=O)c4cccn(C)c4=O)c3C)c2C)cc(F)c1CNC1COC1 [Example 1.169],10 to 1000,
COc1cc(-c2cccc(-c3cccc(NC(=O)c4cccn(C)c4=O)c3C)c2C)cc(F)c1CNC(C)C [Example 1.170],< 10,
COc1cc(-c2cccc(-c3cccc(NC(=O)c4cccn(C)c4=O)c3C)c2C)cc(F)c1CN[C@@H]1CNC(=O)C1 [Example 1.171],< 10,
COc1cc(-c2cccc(-c3cccc(NC(=O)c4cncn(C)c4=O)c3C)c2C)cc(F)c1CN[C@H]1CCC[C@@H]1O [Example 1.172],< 10,
COc1cc(-c2cccc(-c3cccc(Nc4nccc5c4NCCN5)c3C)c2C)cc(F)c1CN[C@@H]1CCC[C@@H]1O [Example 1.173],10 to 1000,
COc1cc(-c2cccc(-c3cccc(NC(=O)c4cn(C)c(=O)n(C)c4=O)c3C)c2C)cc(F)c1CN(C)C[C@@H]1CCC(=O)N1 [Example 1.175],< 10,

Structure (SMILES),IC50 [1] [nM],IC50 [2] [nM]
COc1cc(-c2cccc(-c3cccc(NC(=O)c4cncn(C)c4=O)c3C)c2C)cc(F)c1CN(C)CCO [Example 1.176],< 10,
COc1cc(-c2cccc(-c3cccc(NC(=O)c4cn(C)c(=O)n(C)c4=O)c3C)c2C)cc(F)c1CNC1COC1 [Example 1.177],< 10,
COc1cc(-c2cccc(-c3cccc(NC(=O)c4cn(C)c(=O)n(C)c4=O)c3C)c2C)cc(F)c1CN[C@@H]1CCC[C@@H]1O [Example 1.178],< 10,
COc1cc(-c2cccc(-c3cccc(NC(=O)c4cn(C)c(=O)n(C)c4=O)c3C)c2C)cc(F)c1CNCCO [Example 1.179],< 10,
COc1cc(-c2cccc(-c3cccc(Nc4nccc5nccnc45)c3C)c2C)cc(F)c1CN[C@@H]1CCC[C@@H]1O [Example 1.180],< 10,
COc1cc(-c2cccc(-c3cccc(Nc4nccc5nccnc45)c3C)c2C)cc(F)c1CNC(C)C [Example 1.181],< 10,
COc1cc(-c2cccc(-c3cccc(NC(=O)c4cncn(C)c4=O)c3C)c2C)cc(F)c1CN1CCNC(=O)C1 [Example 1.182],1000 to 10000,
COc1cc(-c2cccc(-c3cccc(NC(=O)c4c[nH]c(=O)n(C)c4=O)c3C)c2C)cc(F)c1CN1CCNC(=O)C1 [Example 1.183],1000 to 10000,
COc1cc(-c2cccc(-c3cccc(Nc4nccc5c4C(=O)N(C)CC5)c3C)c2C)cc(F)c1CNC(C)C [Example 1.184],10 to 1000,
COc1cc(-c2cccc(-c3cccc(Nc4nccc5c4C(=O)N(C)CC5)c3C)c2C)cc(F)c1CNC[C@@H](C)O [Example 1.185],10 to 1000,
COc1cc(-c2cccc(-c3cccc(NC(=O)c4cncn(C)c4=O)c3C)c2C)cc(F)c1CNC[C@H]1CCC(=O)N1 [Example 1.186],< 10,
COc1cc(-c2cccc(-c3cccc(NC(=O)c4cn(C)c(=O)n(C)c4=O)c3C)c2C)cc(F)c1CNC[C@@H]1CCC(=O)N1 [Example 1.187],< 10,
COc1cc(-c2cccc(-c3cccc(NC(=O)c4cn(C)c(=O)n(C)c4=O)c3C)c2C)cc(F)c1CN[C@@H]1CNC(=O)C1 [Example 1.188],< 10,
COc1cc(-c2cccc(-c3cccc(NC(=O)c4cncn(C)c4=O)c3C)c2C)cc(F)c1CN(C)C[C@@H]1CCC(=O)N1C [Example 1.189],10 to 1000,
CC[C@@H](O)NCc1c(F)cc(-c2cccc(-c3cccc(Nc4nccc5c4C(=O)N(C)CC5)c3C)c2C)cc1OC [Example 1.190],< 10,
COc1cc(-c2cccc(-c3cccc(Nc4nccc5c4C(=O)N(C)CC5)c3C)c2C)cc(F)c1CN[C@@H]1CCC[C@@H]1O [Example 1.191],< 10,
COc1cc(-c2cccc(-c3cccc(Nc4nccc5c4C(=O)N(C)CC5)c3C)c2C)cc(F)c1CN(C)C[C@@H]1CCC(=O)N1 [Example 1.192],10 to 1000,
COc1cc(-c2cccc(-c3cccc(Nc4nccc5c4C(=O)N(C)CC5)c3C)c2C)cc(F)c1CNC[C@@H]1CCC(=O)N1 [Example 1.193],< 10,
COc1cc(-c2cccc(-c3cccc(NC(=O)C4=CNCN(C)C4=O)c3C)c2C)cc(F)c1CNC[C@@H]1CCC(=O)N1C [Example 1.194],10 to 1000,
COc1cc(-c2cccc(-c3cccc(NC(=O)c4cncn(C)c4=O)c3C)c2C)cc(F)c1CNC[C@@H]1CCC(=O)N1C [Example 1.195],< 10,
COc1cc(-c2cccc(-c3cccc(Nc4nccc5c4C(=O)N(C)CC5)c3C)c2C)cc(F)c1CN[C@@H]1CNC(=O)C1 [Example 1.196],10 to 1000,

Structure (SMILES),IC50 [1] [nM],IC50 [2] [nM]
COc1cc(-c2cccc(-c3cccc(NC(=O)c4cncn(C)c4=O)c3C)c2C)cc(F)c1CNC1COC1 [Example 1.197],< 10,
COc1cc(-c2cccc(-c3cccc(NC(=O)c4cncn(C)c4=O)c3C)c2C)cc(F)c1CNC1CCCC1 [Example 1.198],,< 10
COc1cc(-c2cccc(-c3cccc(NC(=O)c4cncn(C)c4=O)c3C)c2C)cc(F)c1CN[C@@H]1CCC[C@@H]1O [Example 1.199],,< 10
COc1cc(-c2cccc(-c3cccc(Nc4nccc5nccnc45)c3C)c2C)cc(F)c1CNC[C@@H]1CCC(=O)N1 [Example 1.200],,< 10
COc1cc(-c2cccc(-c3cccc(NC(=O)c4c[nH]c(=O)n(C)c4=O)c3C)c2C)cc(F)c1CNC[C@@H]1CCC(=O)N1 [Example 1.201],,< 10
COc1cc(-c2cccc(-c3cccc(NC(=O)c4cncn(C)c4=O)c3C)c2C)cc(F)c1CNC1CCC1 [Example 1.202],,< 10
COc1cc(-c2cccc(-c3cccc(NC(=O)c4cncn(C)c4=O)c3C)c2C)cc(F)c1CNC[C@@H](C)O [Example 1.203],,< 10
COc1cc(-c2cccc(-c3cccc(NC(=O)c4cncn(C)c4=O)c3C)c2C)cc(F)c1CN[C@H](C)CO [Example 1.204],,< 10
COc1cc(-c2cccc(-c3cccc(NC(=O)c4cncn(C)c4=O)c3C)c2C)cc(F)c1CNCC(C)(C)O [Example 1.205],,< 10
COc1cc(-c2cccc(-c3cccc(Nc4nccc5nccnc45)c3C)c2C)cc(F)c1CN[C@@H]1CNC(=O)C1 [Example 1.206],,< 10
COc1cc(-c2cccc(-c3cccc(Nc4nccc5nccnc45)c3C)c2C)cc(F)c1CN[C@H](C)CO [Example 1.207],,< 10
COc1cc(-c2cccc(-c3cccc(Nc4nccc5nccnc45)c3C)c2C)cc(F)c1CNC[C@@H](C)O [Example 1.208],,< 10
COc1cc(-c2cccc(-c3cccc(NC(=O)c4cncn(C)c4=O)c3C)c2C)cc(F)c1CN[C@@H]1CNC(=O)C1 [Example 1.209],,< 10
COc1cc(-c2cccc(-c3cccc(NC(=O)C4=CNCN(C)C4=O)c3C)c2C)cc(F)c1CNCCO [Example 1.210],,< 10
COc1cc(-c2cccc(-c3cccc(NC(=O)c4cncn(C)c4=O)c3C)c2C)cc(F)c1CNC[C@@H]1CCC(=O)N1 [Example 1.211],,< 10
COc1cc(-c2cccc(-c3cccc(NC(=O)c4c[nH]c(=O)n(C)c4=O)c3C)c2C)cc(F)c1CNC1CNC1 [Example 1.212],,10 to 1000
COc1cc(-c2cccc(-c3cccc(Nc4nccc5nccnc45)c3C)c2C)cc(F)c1CNC1CCOC1 (centres unmarked) [Example 1.213],,< 10
COc1cc(-c2cccc(-c3cccc(NC(=O)c4c[nH]c(=O)n(C)c4=O)c3C)c2C)cc(F)c1CNCC1(O)CC1 [Example 1.214],,< 10
COc1cc(-c2cccc(-c3cccc(Nc4nccc5c4C(=O)N(C)CC5)c3C)c2C)cc(F)c1CNCCO [Example 1.215],,10 to 1000
COc1cc(-c2cccc(-c3cccc(NC(=O)c4c[nH]c(=O)n(C)c4=O)c3C)c2C)cc(F)c1CNC1COC1 [Example 1.216],,10 to 1000
